According to patent publication US20110008409A1, “PHARMACEUTICAL PREPARATION CONTAINING A GESTAGEN, AND KIT AND METHOD FOR TREATING ENDOMETRIOSIS USING THE PREPARATION” (priority 2007, published 2011):

Experiments:
[1] = system: subjects affected with endometriosis; conditions: 2 mg of dienogest per day for 24 weeks; cited from earlier work
[2] = system: women with laparoscopically diagnosed endometriosis; experiment: Clinical study in endometriosis: pain scale (visual analog scale, VAS); assay type: in vivo; conditions: end of 6-month treatment; for pain reduction on visual analog scale (VAS) compared to the pain experienced at the beginning of therapy: DNG 2 mg/d orally, LA 3.75 mg s.c. every 4 weeks
Protocol: (§1) The efficacy of each therapy was evaluated by means of, among other methods, a pain scale (visual analog scale, VAS) form filled out by the patient.

[3] = system: women with laparoscopically diagnosed endometriosis; conditions: in vivo
Protocol: as §1

[4] = system: women with laparoscopically diagnosed endometriosis; conditions: in vivo; remark: listed apart in the source
[5] = system: women with laparoscopically diagnosed endometriosis; conditions: in vivo; remark: listed apart in the source
Protocol: as §1
The effect of the two therapies on bone metabolism was studied in a subgroup of patients.

ovulation = conditions: daily dose; as set for the purposes of the invention; cited from earlier work

Row | Structure (SMILES) | result of the treatment compared with Danazol or GnRH agonists [1] | statistical analysis of pain reduction versus comparator ([2]; DNG 2 mg/d orally vs LA 3.75 mg s.c. every 4 weeks) | pain reduction on visual analog scale (VAS) compared to the pain experienced at the beginning of therapy [2] [mm] | course of hot flash symptomatology during therapy [3] | estrogen values, average value at the end of study [4] [pmol/L] | change of bone density compared to the beginning of the study [5] | ovulation-inhibiting dose (ovulation) [mg] | laboratory parameters for determining bone metabolism [5]
1 | C[C@]12CCC3=C4CCC(=O)C=C4CC[C@H]3[C@@H]1CC[C@@]2(O)CC#N [DNG, 17α-cyanomethyl-17-β-hydroxyestra-4,9-dien-3-one] | comparable | not inferior to LA | −47.5 | reduced | 249.9 | +0.25% |  | 
2 | CC(=O)O[C@]1(C(C)=O)CC[C@H]2[C@@H]3C=C(Cl)C4=CC(=O)CC[C@]4(C)[C@H]3CC[C@@]21C [chiormadinone acetate, chlormadinone acetate] |  |  |  |  |  |  | 1.7 | 
3 | CC(=O)O[C@]1(C(C)=O)CC[C@H]2[C@@H]3C=C(Cl)C4=CC(=O)[C@@H]5C[C@@H]5[C@]4(C)[C@H]3CC[C@@]21C [cyproterone acetate] |  |  |  |  |  |  | 1 | 
4 | CCNC(=O)[C@@H]1CCCN1C(=O)[C@H](CCCNC(=N)N)NC(=O)[C@H](CC(C)C)NC(=O)[C@@H](CC(C)C)NC(=O)[C@H](Cc1ccc(O)cc1)NC(=O)[C@H](CO)NC(=O)[C@H](Cc1c[nH]c2ccccc12)NC(=O)[C@H](Cc1c[nH]cn1)NC(=O)[C@@H]1CCC(=O)N1 [LA, leuprorelin acetate] |  |  | −46.0 | increased | 68.5 | −4.0% |  | increased bone resorption
